Key:
15-PGDH/HPGD = 15-PGDH/HPGD (Homo sapiens (Human), UniProt P15428); assay: hPGDH inhibitor screening biochemical assay; settings: read-out: hPGDH: Average IC50
Outline: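 Recombinant human 15-PGDH (10 nM) pre-incubated with compounds 10 min at 37 °C, then 15 μM PGE2 and 0.25 mM NAD+ added for 10 min at room temperature in 50 mM Tris-HCl pH 7.5, 0.01% Tween 20. NADH fluorescence read at ex/em 340/485 nm. IC50 from 10-point curves, four-parameter fit versus 1% DMSO.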

[1] = Liver microsome stability assay (MLM); type: in vitro ADME; settings: mouse liver microsomes
Protocol: A microsomal mixture (microsomes and Kphos buffer) was prepared at a concentration of 1.428 mg/mL in 2 mL tubes. To this microsomal mixture 1.6 μL (1 mM) of test compound and positive control were spiked; from this mixture, 70 μL was transferred to 96 well plate and pre-incubated at 37° C. for 5 min. After pre-incubation, the zero minute time point reaction was stopped using 100 μL of ice-cold acetonitrile containing internal standard and […] (3.33 mM in Kphos buffer) was added. The 45 minute time point reaction was initiated by addition of 30 μL of NADPH (3.33 mM in Kphos buffer) and incubated at 37° C. for 15 and 45 min. Reactions without NADPH and buffer controls (minus NADPH) at 0, 15, and 45 minutes were also incubated to rule out non-NADPH metabolism or chemical instability in the incubation buffer. Incubation reactions were stopped with 100 μL of ice-cold acetonitrile containing internal standard. The plates were centrifuged at 4000 RPM for 15 min and 100 μL aliquots were submitted for analysis by LC-MS/MS. (Verapamil in human liver microsomes (HLM) and rat liver microsomes (RLM) was used as positive controls. Imipramine in mouse liver microsomes (MLM) was used as a positive control.) Samples were monitored for parent compound disappearance in MRM mode (multiple reaction monitoring) using LC-MS/MS. The peak area ratios of analyte versus internal standard were used to calculate the % remaining at the end of 45 minutes in the presence of NADPH.

Sequence of 15-PGDH/HPGD (P15428 whole entry): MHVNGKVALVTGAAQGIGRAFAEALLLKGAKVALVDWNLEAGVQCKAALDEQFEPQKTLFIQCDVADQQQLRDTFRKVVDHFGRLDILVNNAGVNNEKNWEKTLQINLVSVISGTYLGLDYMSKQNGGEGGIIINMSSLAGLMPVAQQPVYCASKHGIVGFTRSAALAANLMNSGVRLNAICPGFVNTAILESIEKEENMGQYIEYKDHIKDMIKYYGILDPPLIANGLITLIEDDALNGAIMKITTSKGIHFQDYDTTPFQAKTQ

Row | Compound | IC50 (15-PGDH/HPGD) [nM] | MLM + NADPH (% remaining at 45 min) [1] [%]
1 | O=C(NC(CO)CO)c1ccc(-n2ccc3cc(C(=O)N4CCC(F)(F)CC4)cnc32)cc1 [MF-DH-412] | < 100 | 97
2 | CC(C)(C)c1ccc(NC(=O)c2cncc(-n3ccc4cc(C(=O)N5CCC(F)(F)CC5)cnc43)c2)cn1 [MF-DH-520, N-(6-(tert-butyl)pyridin-3-yl)-5-(5-(4,4-difluoropiperidine-1-carbonyl)-1H-pyrrolo[2,3-b]pyridin-1-yl)nicotinamide] | < 100 | 38
3 | NC(=O)c1ccc(-n2cc(Cl)c3cc(C(=O)N4CCC(F)CC4)cnc32)cc1 [MF-DH-382, 4-(3-chloro-5-(4-fluoropiperidine-1-carbonyl)-1H-pyrrolo[2,3-b]pyridin-1-yl)benzamide] | < 100 | 26
4 | NC(=O)c1ccc(-n2cnc3cc(C(=O)N4CCC(F)(F)CC4)cnc32)cc1 [MF-DH-464] | < 100 | 100
5 | O=C(NCCO)c1ccc(-n2ccc3cc(C(=O)N4CCC(F)(F)CC4)cnc32)cc1 [MF-DH-413] | < 100 | 94
6 | O=C(Nc1cc(C2CC2)[nH]n1)c1cccc(-n2ccc3cc(C(=O)N4CCC(F)(F)CC4)cnc32)c1 [MF-DH-498, N-(5-cyclopropyl-1H-pyrazol-3-yl)-3-(5-(4,4-difluoropiperidine-1-carbonyl)-1H-pyrrolo[2,3-b]pyridin-1-yl)benzamide] | < 100 | 0
7 | CC(C)(C)CNC(=O)c1ccc(-n2ccc3cc(C(=O)N4CCC(F)(F)CC4)cnc32)cn1 [MF-DH-438, 5-(5-(4,4-difluoropiperidine-1-carbonyl)-1H-pyrrolo[2,3-b]pyridin-1-yl)-N-neopentylpicolinamide] | < 100 | 63
8 | O=C(c1cnc2c(ccn2-c2cccc(-c3nn[nH]n3)c2)c1)N1CCC(F)(F)CC1 [MF-DH-515, (1-(3-(2H-tetrazol-5-yl)phenyl)-1H-pyrrolo[2,3-b]pyridin-5-yl)(4,4-difluoropiperidin-1-yl)methanone] | < 100 | 103
9 | O=C(c1cnc2c(ccn2-c2cncc(-c3nc[nH]n3)c2)c1)N1CCC(F)(F)CC1 [MF-DH-516, (1-(5-(1H-1,2,4-triazol-3-yl)pyridin-3-yl)-1H-pyrrolo[2,3-b]pyridin-5-yl)(4,4-difluoropiperidin-1-yl)methanone] | < 100 | 88
10 | CC(C)(C)C(=O)NCCNC(=O)c1ccc(-n2ccc3cc(C(=O)N4CCC(F)(F)CC4)cnc32)cc1 [MF-DH-403, 4-(5-(4,4-difluoropiperidine-1-carbonyl)-1H-pyrrolo[2,3-b]pyridin-1-yl)-N-(2-pivalamidoethyl)benzamide] | < 100 | 45
11 | CCOC(=O)Nc1cncc(-n2ccc3cc(C(=O)N4CCC(F)(F)CC4)cnc32)c1 [MF-DH-485, ethyl (5-(5-(4,4-difluoropiperidine-1-carbonyl)-1H-pyrrolo[2,3-b]pyridin-1-yl)pyridin-3-yl)carbamate] | < 100 | 80
12 | CC(C)(C)NC(=O)c1cncc(-n2ccc3cc(C(=O)N4CCC(F)(F)CC4)cnc32)c1 [MF-DH-448, N-(tert-butyl)-5-(5-(4,4-difluoropiperidine-1-carbonyl)-1H-pyrrolo[2,3-b]pyridin-1-yl)nicotinamide] | < 100 | 79
13 | COc1ccc(-n2ccc3c(N)c(C(=O)N4CCCCC4)cnc32)cc1 [MF-DH-290, (4-amino-1-(4-methoxyphenyl)-1H-pyrrolo[2,3-b]pyridin-5-yl)(piperidin-1-yl)methanone] | < 100 | –
14 | O=C(c1ccc2c(c1)CCC(=O)N2c1cccc(Cl)c1)N1CCCCC1 [MF-PGDH-058, 1-(3-chlorophenyl)-6-(piperidine-1-carbonyl)-3,4-dihydroquinolin-2(1H)-one] | 100 to 1000 | –
15 | COc1ccc(-n2cnc3cc(C(=O)N4CC(F)C4)cnc32)cc1 [MF-DH-138] | 100 to 1000 | –
16 | O=C(c1ccc(COc2ccccc2-c2ccccn2)cc1)N1CCCCC1 [MF-PGDH-095] | < 100 | –
17 | COc1ccc(Cn2cc3cc(-n4ccc5cc(C(=O)N6CCCCC6)cnc54)ccc3n2)cc1 [MF-DH-340] | < 100 | –
18 | O=C(Nc1cc(C2CC2)[nH]n1)c1cncc(-n2ccc3cc(C(=O)N4CCC(F)(F)CC4)cnc32)c1 [MF-DH-501, N-(5-cyclopropyl-1H-pyrazol-3-yl)-5-(5-(4,4-difluoropiperidine-1-carbonyl)-1H-pyrrolo[2,3-b]pyridin-1-yl)nicotinamide] | < 100 | –
19 | COc1cccc(C(=O)Nc2ccc(C(=O)N3CCCCC3)cc2)c1 [MF-PGDH-089] | 100 to 1000 | –
20 | O=C(c1ccc2c(c1)ncn2-c1cccc(Cl)c1)N1CCCC1 [MF-PGDH-046] | 100 to 1000 | –
21 | CCc1nc2cc(C(=O)N3CCC(F)CC3)cnc2n1-c1ccc(OC)cc1 [MF-DH-184] | 100 to 1000 | –
22 | O=C(NC1(C(=O)O)CC1)c1ccc(-n2ccc3cc(C(=O)N4CCC(F)(F)CC4)cnc32)cn1 [MF-DH-430, 1-(5-(5-(4,4-difluoropiperidine-1-carbonyl)-1H-pyrrolo[2,3-b]pyridin-1-yl)picolinamido)cyclopropane-1-carboxylic acid] | < 100 | –

The next lines start with the values.

Row | IC50 (15-PGDH/HPGD) [nM] | MLM + NADPH (% remaining at 45 min) [1] [%] | Compound
23 | < 100 | 99 | Cc1nc(-c2ccc(-n3ccc4cc(C(=O)N5CCC(F)(F)CC5)cnc43)cn2)no1 [MF-DH-471, (4,4-difluoropiperidin-1-yl)(1-(6-(5-methyl-1,2,4-oxadiazol-3-yl)pyridin-3-yl)-1H-pyrrolo[2,3-b]pyridin-5-yl)methanone]
24 | < 100 | 68 | Cc1nc(-c2ccc(-n3c(CCC(C)(C)O)cc4cc(C(=O)N5CCC(F)(F)CC5)cnc43)cc2)no1 [MF-DH-542, (4,4-difluoropiperidin-1-yl)(2-(3-hydroxy-3-methylbutyl)-1-(4-(5-methyl-1,2,4-oxadiazol-3-yl)phenyl)-1H-pyrrolo[2,3-b]pyridin-5-yl)methanone]
25 | < 100 | 86 | CC(C)(C)CNC(=O)c1cncc(-n2ccc3cc(C(=O)N4CCC(F)(F)CC4)cnc32)c1 [MF-DH-405, 5-(5-(4,4-difluoropiperidine-1-carbonyl)-1H-pyrrolo[2,3-b]pyridin-1-yl)-N-neopentylnicotinamide]
26 | < 100 | 0 | N/C(=N\O)c1cccc(-n2ccc3cc(C(=O)N4CCCCC4)cnc32)c1 [MF-DH-400]
27 | < 100 | 81 | O=C(NC1CCS(=O)(=O)CC1)c1cc(Cl)cc(-n2ccc3cc(C(=O)N4CCC(F)(F)CC4)cnc32)c1
28 | < 100 | 41 | NC(=O)c1ccc(-n2ccc3cc(C(=O)N4CCCCC4)cnc32)cn1 [MF-DH-365]
29 | < 100 | 4 | O=C(c1cnc2c(ccn2-c2ccc3[nH]ncc3c2)c1)N1CCC(F)(F)CC1 [MF-DH-396]
30 | < 100 | 12 | NC(=O)c1ccc(-n2cc(Cl)c3cc(C(=O)N4CCCCC4)cnc32)cc1 [MF-DH-383, 4-(3-chloro-5-(piperidine-1-carbonyl)-1H-pyrrolo[2,3-b]pyridin-1-yl)benzamide]
31 | < 100 | 84 | CC(C)(O)CNC(=O)c1cc(Cl)cc(-n2ccc3cc(C(=O)N4CCC(F)(F)CC4)cnc32)c1 [MF-DH-521]
32 | < 100 | 87 | NCCNC(=O)c1ccc(-n2ccc3cc(C(=O)N4CCC(F)(F)CC4)cnc32)cc1 [MF-DH-411, N-(2-aminoethyl)-4-(5-(4,4-difluoropiperidine-1-carbonyl)-1H-pyrrolo[2,3-b]pyridin-1-yl)benzamide]
33 | < 100 | 97 | CS(=O)(=O)NC(=O)c1ccc(-n2ccc3cc(C(=O)N4CCC(F)(F)CC4)cnc32)cc1 [MF-DH-428, 4-(5-(4,4-difluoropiperidine-1-carbonyl)-1H-pyrrolo[2,3-b]pyridin-1-yl)-N-(methylsulfonyl)benzamide]
34 | < 100 | 94 | O=C(O)c1ccc(-n2ccc3cc(C(=O)N4CCC(F)(F)CC4)cnc32)cn1 [MF-DH-434, 5-(5-(4,4-difluoropiperidine-1-carbonyl)-1H-pyrrolo[2,3-b]pyridin-1-yl)picolinic acid]
35 | < 100 | 78 | CS(=O)(=O)NCCNC(=O)c1ccc(-n2ccc3cc(C(=O)N4CCC(F)(F)CC4)cnc32)cc1 [MF-DH-409, 4-(5-(4,4-difluoropiperidine-1-carbonyl)-1H-pyrrolo[2,3-b]pyridin-1-yl)-N-(2-(methylsulfonamido)ethyl)benzamide]

Source: patent US11345702B1 (Myoforte Therapeutics, Inc., priority 2020, dated 2022)
